# “Also recorded” adds a separate entry of the source. Read-outs that look alike come from different tables or passages of the source.
# Assays:
# [1] = tested on: viral replication; test: Anti-viral activity of DIME analogues and homologues (cellular assays and in vivo); type: cell-based
# [2] = tested on: human cancer cells; settings: relative to DIME; U.S. Ser. Nos. 08/655,267 and 08/833,272; cited from earlier work
# [3] = biological target: tubulin; settings: cited from earlier work
# [4] = Toxicity to human white cells; type: cell-based; settings: white blood cells
# Method: (§1) Nocodazole is a well known antitubulin drug. It is highly toxic. Thus, we established a concentration that is relatively harmless to human white cells, i.e. between 0.1 and 1 μM. At […] , nocodazole depressed HIV production by 40% thereby simulating the action of DIME. However DIME is completely nontoxic up to about 320 μM.
# [5] = tested on: human white cells; settings: cited from earlier work
# [6] = tested on: HIV-1 (strains HIV-, 89.6 and HIV-1 SF162); test: HIV replication in stimulated human lymphocytes (reverse transcriptase assay); type: cell-based, HIV-1 in human lymphocytes
# Method: Inhibition of HIV replication in human white cells by DIME
# Lymphocytes were obtained from the Sacramento Blood Bank. After stimulation of cells with phytohaemagglutinine for 3 days, cells were exposed to varying concentrations of DIME (see abscissa of FIG. 1) and incubated for 2 hours at 37° C., 5% CO2, followed by the addition of 3.2×10^5 TCID50 HIV-1 viruses (strains HIV-, 89.6 and HIV-1 SF162). Viral growth was allowed to proceed for 3 days.
# as §1
# [7] = compared with vincristine; cited from earlier work
# [8] = tested on: uptake of iodine into the thyroid; settings: cited from earlier work
# [9] = tested on: tadpole metamorphosis; settings: as determined by tadpole metamorphosis; cited from earlier work
# [10] = tested on: non-malignant mouse pituitary adenoma; settings: in vivo; cited from earlier work
# [11] = tested on: Ras and apoptosis-regulating kinases (ASK1), JNK pathway, MEKK1/SEK1 and c-Jun/AP-1; settings: cited from earlier work
# [12] = tested on: human lymphocytes
# Method: Intracellular DIME analysis in human lymphocytes was performed as described (Mendeleyev et al., Intl. J. Oncol. 10:689-695 (1997)) with the aid of ^14 C-DIME. After exposure of lymphocytes to varying concentrations of ^14 C-DIME, cells were centrifuged through di-n-butyl phthalate/dinonylphthalate and separated cell pellets were dissolved in 0.3 M NaOH and counted. Cell volume was determined as reported (Gewert et al. Eur. J. Biochem. 116:487-494 (1981)).
# [13] = tested on: MDA-MB-231 (human mammary cancer) cells; test: MDA-MB-231 xenografts in nude mice, tumor volume; type: in vivo, human tumor xenograft in nude mice
# Excerpt: The ability of human tumors to grow as xenografts in athymic mice (e.g., nude mice) provides a useful in vivo model for studying the biological response to therapies for human tumors. Since the first successful xenotransplantation of human tumors into athymic mice ([…] et al., 1969, Acta Pathol. Microbial. Scand. 77:758-760), many different human tumor cell lines (e.g., mammary, lung, genitourinary, gastrointestinal, head and neck, glioblastoma, bone and malignant melanomas) have been successfully transplanted and grown into nude mice. Human mammary tumor cell lines, including MCF-7, ZR75-1 and MDA-MB-23 1, have been established as subcutaneous grafts in nude mice (Warri et al., 1991, Intl. J. Cancer 49:616-23; Ozzello et al., 1980, Eur. J. Cancer 16:553-559; Osbourne et al., 1985, Cancer Res. 45:584-590; Siebert et al., 1983, Cancer Res. 43:2223-2239). […] Experimental Protocol MDA-MB-231 (human mammary cancer) cells were obtained from American Type Culture Collection (Rockville, Md.) and maintained in the recommended growth media. Twenty nude mice were each inoculated subcutaneously with MDA-MB-231 cells (10^6 cells/100 […]). To one group of ten mice, DIME was administered by gavage (250 mg/kg, 10 mL/kg in corn oil) once […] per day, 5 days per week, for a total of 32 days. The other (control) group of ten mice was given administered vehicle only according to the same dosing schedule. Tumors were measured twice weekly using a Vernier caliper, and the mean tumor volume was determined at each time point. Comparisons between groups were made using an unpaired, two-tailed t-test and the results were analyzed using analysis of variance.
# [14] = tested on: apoptosis; settings: disruption of microtubules; cited from earlier work
# [15] = tested on: tumor cells; settings: cited from earlier work
# [16] = tested on: HIV harboring cells; type: in vitro ADME, human
# [17] = Toxicity, daily oral dosing of nude mice; type: in vivo; settings: 1 g/kg daily, 12-15 days
# Method: Ten nude mice were administered a daily oral dose of ^14 C-labeled DIME (Compound 1) (1.0 g/kg, 0.1 ml, in corn oil) for a period of 12-15 days.
# [18] = Serum half-life and bioavailability of 14C-labeled DIME in mice; type: in vivo
# Method: Mice were orally dosed with 126 mg/kg 14C-labeled DIME (Compound 1). After dosing, blood sampling times were 15 and 30 minutes and 1, 2, 4, 6, 8 and 24 hours. Aliquots (50 μL) of blood were assayed in a liquid scintillation counter and data expressed as microgram-equivalents per mL.
# The blood level data were analyzed by the RSTRIP method (Micromath, Salt Lake City, Utah). Parallel groups of mice were dosed intravenously with 24.5 mg/kg 14C-labeled DIME and blood sampling times were 10, 20 and 30 minutes and 1, 2, 4, 6 and 8 hours.
# [19] = tested on: tubulin; settings: cited from earlier work; remark: listed apart in the source
smiles,measurement,setting,value
"CCOC(=O)c1cc(I)c(Oc2ccc(OC)cc2)c(I)c1 [Compound 5, Ethyl 3,5-diiodo-4-(4'-methoxyphenoxy)benzoate]",anti-viral activity,[1],inactive
"COC(=O)c1cc(I)c(Oc2ccc(OC)cc2Cl)c(I)c1 [Compound 14, Methyl 3,5-diiodo-4-(2'-chloro-4'methoxyphenoxy)benzoate]",maximal inhibitory action on the growth of human cancer cells as compared to DIME,[2],about 25%
"CC[C@]1(O)C[C@H]2CN(CCc3c([nH]c4ccccc34)[C@@](C(=O)OC)(c3cc4c(cc3OC)N(C=O)[C@H]3[C@@](O)(C(=O)OC)[C@H](OC(C)=O)[C@]5(CC)C=CCN6CC[C@]43[C@@H]65)C2)C1 [vincristine, reference compound]",KD vs tubulin relative to DIME,"[3]; may be, relative to DIME",thousand-fold higher
"COC(=O)Nc1nc2ccc(C(=O)c3cccs3)cc2[nH]1 [Nocodazole, reference compound]",MNTC,[4],0.1 to 1 µM
same,toxicity (general statement),[5],highly toxic
same,inhibition at 0.1 µM,"[6]; Human immunodeficiency virus 1, Lymphocyte, 72 h, read-out: depression of HIV production",40%
"CC[C@]1(O)C[C@@H]2CN(CCc3c([nH]c4ccccc34)[C@@](C(=O)OC)(c3cc4c(cc3OC)N(C)[C@H]3[C@@](O)(C(N)=O)[C@H](O)[C@]5(CC)C=CCN6CC[C@]43[C@@H]65)C2)C1 [vindesine, 4-desacetyl vinblastine C-3 carboxamide]",neurotoxicity in humans,[7],less neurotoxicity than does vincristine
"NC(Cc1cc(I)c(Oc2cc(I)c(O)c(I)c2)c(I)c1)C(=O)O (stereo not shown) [thyroxine, reference compound]",suppression of iodine uptake by the thyroid,"[8]; rat, in vivo",suppresses uptake of iodine by the thyroid
same,metabolic or cell differentiating activity,[9],induces cell differentiation
same,growth inhibition of non-malignant mouse pituitary tumor,[10],depress growth
CC(=O)O[C@H]1C(=O)[C@@]2(C)[C@H]([C@H](OC(=O)c3ccccc3)[C@]3(O)C[C@H](OC(=O)[C@H](O)[C@@H](NC(=O)c4ccccc4)c4ccccc4)C(C)=C1C3(C)C)[C@]1(OC(C)=O)CO[C@@H]1C[C@@H]2O [taxol],activation of kinase pathways,[11],"can activate both Ras and apoptosis-regulating kinases (ASK1), pathways"
"COC(=O)c1cc(I)c(Oc2ccc(OC)cc2)c(I)c1 [DIME, Methyl 3,5-diiodo-4-(4'-methoxyphenoxy)benzoate]",DIME uptake by normal or stimulated white cells,[12],do not take up significant quantities
same,MNTC,"[4]; up to about, read-out: concentration up to which completely nontoxic",~320 µM
same,MDA-MB-231 tumor volume Day 14 ± SEM,"[13]; 250 mg/kg by gavage, 5 days per week, control 284.6 ± 42.0, p = 0.06",172.0 ± 34.3
same,MDA-MB-231 tumor volume Day 21 ± SEM,"[13]; 250 mg/kg by gavage, 5 days per week, control 622.2 ± 58.1, p = 0.02",285.7 ± 62.4
same,MDA-MB-231 tumor volume Day 28 ± SEM,"[13]; 250 mg/kg by gavage, 5 days per week, control 979.0 ± 154, p = 0.01",430 ± 85.6
same,MDA-MB-231 tumor volume Day 32 ± SEM,"[13]; 250 mg/kg by gavage, 5 days per week, control 1176.6 ± 222.4, p = 0.01",543.8
same,"% decrease of tumor volume, Day 14","[13]; 250 mg/kg, vs vehicle control",40%
same,"% decrease of tumor volume, Day 21","[13]; 250 mg/kg, vs vehicle control",54%
same,"% decrease of tumor volume, Day 28","[13]; 250 mg/kg, vs vehicle control",56%
same,"% decrease of tumor volume, Day 32","[13]; 250 mg/kg, vs vehicle control",54%
same,reduction of malignant tumor growth,[13]; non-optimized treatment regimen,significant reduction of malignant tumor growth
same,induction of apoptosis,[14],induces apoptosis
same,binding to microtubules,[3]; shown experimentally,binding to cellular microtubules
same,permeation into tumor cells in vivo,[15],selective permeation into tumor cells in vivo
same,inhibition of uptake of iodine into the thyroid,"[8]; rats, as compared to thyroxine",15%
same,DIME uptake by HIV infected cells,[16],significant drug uptake
same,ill effects on daily oral dosing,[17],No ill effects
same,reverse transcriptase activity in cell supernatant as a function of DIME concentration (FIG. 1),"[6]; cpm, 2 h preincubation, viral growth 3 days","progressively diminishes as a function of DIME concentration; also recorded: decreases with increased ""DIME"" concentration"
same,"inhibition of HIV replication in human lymphocytes, concentration compared with microtubule disruption in tumor cells",[6]; human lymphocytes,at the same concentration as it disrupts microtubules in tumor cells
same,i.v. serum half-life (t1/2),"[18]; i.v., 24.5 mg/kg",about 4 hours
same,"area under the blood concentration-time curve, intravenous","[18]; intravenous, 24.5 mg/kg, mice, 14C-labeled DIME",156 µg·h/mL
same,half-life (t1/2),"[18]; mice, 14C-labeled DIME, 126 mg/kg oral, 24.5 mg/kg i.v.",2 to 2.5 h
same,"area under the blood concentration-time curve, oral","[18]; oral, 126 mg/kg, mice, 14C-labeled DIME",665.28 µg·h/mL
same,half-life in serum,"[18]; serum, route and species not stated",about 4 hours
same,metabolic or cell differentiating activity,[9],no significant metabolic or cell differentiating activity
same,inhibition of tubulin polymerization,[19],inhibition of tubulin polymerization
same,anti-viral activity,[1],highly active
same,growth inhibition of non-malignant mouse pituitary tumor,[10],no inhibitory activity
"CCCOc1ccc(Oc2c(I)cc(C(=O)OC)cc2I)cc1 [Compound 3, Methyl 3,5-diiodo-4-(4'-n-propoxyphenoxy)benzoate]",anti-viral activity,[1],inactive

# Source: patent US6326402A, “Methods for treating viral infections using a compound capable of inhibiting microtubules” (Octamer, Inc., priority 1998, dated 2001)
